Experimental data as given in patent US7897616B2, “Imidazopyridin-2-one derivatives as inhibitors of lipases and phospholipases” (Sanofi-Aventis, priority 2006, dated 2011).

Biological target: T1, endothelial lipase (EL) (Homo sapiens, UniProt Q9Y5X9)
T1 construct: made in house; host or cells: recombinant CHO or HEK293 cell lines; concentrated conditioned medium used as enzyme solution
T1 sequence (Q9Y5X9 21-500): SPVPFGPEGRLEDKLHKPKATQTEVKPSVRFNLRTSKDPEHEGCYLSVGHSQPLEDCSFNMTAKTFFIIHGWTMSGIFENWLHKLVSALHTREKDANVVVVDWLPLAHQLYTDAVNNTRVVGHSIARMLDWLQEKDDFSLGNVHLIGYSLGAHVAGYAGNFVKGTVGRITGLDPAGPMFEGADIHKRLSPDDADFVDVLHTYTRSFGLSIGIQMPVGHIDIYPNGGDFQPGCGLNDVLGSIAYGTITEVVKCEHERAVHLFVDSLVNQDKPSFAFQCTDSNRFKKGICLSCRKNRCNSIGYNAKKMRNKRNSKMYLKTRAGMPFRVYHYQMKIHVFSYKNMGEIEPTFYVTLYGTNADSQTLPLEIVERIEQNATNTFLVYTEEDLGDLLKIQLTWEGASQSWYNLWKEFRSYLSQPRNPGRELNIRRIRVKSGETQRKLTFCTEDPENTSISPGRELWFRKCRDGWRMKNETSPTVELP
Assay: EL inhibition assay (EL activity assay with fluorescent Bodipy phospholipid substrate)
Assay type: biochemical
Conditions: EL from conditioned medium of recombinant cell lines (CHO, HEK293); 37° C., 90 minutes; Bodipy-labeled phosphocholine substrate
Method: The activity of the compounds of the invention of the formula I was tested in the following enzyme assay system: […]
EL is released as secretory protein in high concentration into cell culture medium (conditioned medium) by recombinant cell lines (CHO, HEK293). This is employed as an enzyme solution after concentration.
The phospholipase-specific substrate 1,2-bis(4,4-difluoro-5,7-dimethyl-4-bora-3a,4a-diaza-s-indacene-3-undecanoyl)-sn-glycero-3-phosphocholine (manufacturer Molecular Probes) is used to characterize the enzymatic activity of endothelial lipase and the effect of inhibitors. Hydrolysis of the A1 ester linkage of this phospholipid by the enzyme liberates a fatty acid labeled with the fluorescent dye Bodipy which can be detected after separation by thin-layer chromatography on an HPTLC plate (silica gel 60, Merck) or directly in the reaction vessel by measuring the fluorescence. The substrate solution is prepared by dissolving 100 μg of 1,2-bis(4,4-difluoro-5,7-dimethyl-4-bora-3a,4a-diaza-s-indacene-3-undecanoyl)-sn-glycero-3-phospho-choline (manufacturer Molecular Probes) in 100 μl of DMSO and taking up in 2.4 mg of tripalmitin (Sigma) in 393 μl of chloroform which comprises 20 mg/ml of DOP-choline (1,2-dioleoyl-sn-glycero-3-phosphocholine). 39.3 μl of this lipid mixture are transferred into a fresh reaction vessel, and the solvent is evaporated off. The lipid mixture is dissolved in 4 ml of 200 mM TRIS-HCl, 150 mM sodium chloride, pH=7.4, by sonicating twice. The subsequent enzymic reaction takes place at 37° C. for 90 minutes. For this purpose, 20 μl of the substrate solution are incubated with 2 μl of inhibitor of appropriate concentration (dissolved in 10% DMSO, using 10% strength DMSO solution for control) and 2 μl of enzyme solution (conditioned medium). Subsequently, 4 μl of the assay mixture are loaded onto an HPTLC plate (silica gel 60, Merck), and the liberated fluorescent dye is separated for detection with a mobile phase (diethyl ether:petroleum spirit:acetic acid [78:22:1]). After evaporation of the mobile phase, the plate is read in a fluorescence scanner. An increased liberation of the fluorescent dye in the uninhibited reaction is observed as a measure of the enzyme activity.
The enzymatic activity is reduced as a function of the inhibitor concentration used, and the inhibitor concentration at which a half-maximum enzymatic activity is observed is called IC50.

In order of falling IC50:
1. Cc1ccccc1CNC(=O)n1c(=O)n(C)c2cccnc21 [Example 2, N-(2-Methylbenzyl)-1-methyl-2-oxo-1,2-dihydroimidazo[4,5-b]pyridine-3-carboxamide]  0.24 µM
2. Cn1c(=O)n(C(=O)N[C@@H]2CCc3ccccc32)c2ncccc21 [Example 9, 1-Methyl-2-oxo-1,2-dihydro-imidazo[4,5-b]pyridine-3-carboxylic acid-(R)-indan-1-ylamide]  0.232 µM
3. CCCCCCNC(=O)n1c(=O)n(C(=O)NCCCCCC)c2cnccc21 [Example 8, N,N′-Bishexyl-2-oxoimidazo[4,5-c]pyridine-1,3-dicarboxamide]  0.226 µM
4. CCCCCCNC(=O)n1c(=O)n(C(=O)OC(C)(C)C)c2c(C)ccnc21 [Example 7, tert-Butyl 3-hexylcarbamoyl-7-methyl-2-oxo-2,3-dihydroimidazo[4,5-b]pyridine-1-carboxylate]  0.146 µM
5. CCCCCCNC(=O)n1c(=O)n(C)c2cccnc21 [Example 1, N-Hexyl-1-methyl-2-oxo-1,2-dihydroimidazo[4,5-b]pyridine-3-carboxamide]  0.06 µM
